In patent US12036312B2, “Non-aqueous topical compositions comprising a halogenated salicylanilide” (priority 2016, dated 2024):
≈ marks a conversion by molar mass, not a printed value. Read-outs that look alike come from different tables or passages of the source.

Assays:
P. acnes = assay: MIC by agar dilution, Propionibacterium acnes; format: cell-based; details: Cutibacterium acnes
Description: The strains of P. acnes used were CSS3288, CSS 3023, 998, and 1044 obtained from Luc Dubreuil. P. acnes strains are grown on Brucella blood agar with hemin and vitamin K [1], plates are incubated 48 to 72 hours at 35-37° C. under anaerobic conditions. Brucella blood agar with hemin and vitamin K was prepared as follows: sterile Brucella agar with hemin and vitamin K was tempered to 50-54° C. and the medium was supplemented with 5% lacked horse blood and poured in Petri dishes. Broth cultures are performed in Wilkins-Chalgren broth. All cultures are done under anaerobic conditions in an anaerobic chamber. Agar media was inoculated for single-colony isolation using sterile disposable loops. The MICs of the antibacterial agents was determined by agar dilution. […] Brucella Blood Agar with hemin and vitamin K plates containing series of two-fold dilutions of antibacterial agents were prepared. The base agar was prepared and tempered to 50-54° C. Then the blood supplement and the antibiotics were added and the 7 ml were aseptically poured into six-well culture plates. Once the agar had solidified it was transferred into the anaerobe chamber for 24 hours before use to allow for pre-reduction. Twenty-five microliters of P. acnes culture containing 10^6 CFU of were spotted in each well. The plates were incubated anaerobically for 72 hours at 35-37° C. The MIC is the lowest concentration that inhibits growth of P. acnes.

[1] = system: methicillin-resistant Staphylococcus aureus (MRSA 01, MRSA 15, MRSA 16); assay: Resistance mutation frequency evaluation, Example 3; format: cell-based
[2] = Mini-pig PK: niclosamide concentration in plasma; format: in vivo, Göttingen SPF mini-pigs; details: mini-pigs, day 28, dermal application of the formulations
Description: The study was performed in 3 male and 3 female Göttingen SPF mini-pigs from Ellegaard Göttingen Mini-pigs A/S, DK-4261 Dalmose, Denmark. At the start of the acclimatization period, the animals were approximately 6 months old and the body weight was 12.1 to 13.4 kg. An acclimatization period of at least 1 week was allowed, during which the animals were observed daily.
All test fields were semi-occluded with Mefix® (Mölnlycke Health Care, Sweden), allowing the sites to “breathe” while keeping the test substance in place. The Mefix® was kept in place with adhesive tape (Tensoplast, BSN medical, Germany) for 6 hours±30 minutes after application to ensure that the compounds were absorbed into the skin.

S. pyogenes [3] = assay: Minimum inhibitory concentration (MIC) assay, Example 1, S. pyogenes strains; format: cell-based; details: Streptococcus pyogenes, read-out: MIC
Description: (§1) Twenty-one other MRSA and methicillin-sensitive S. aureus strains, and 4 Streptococcus pyogenes strains, were also included in the study (Table 2). These covered fusidic acid- and mupirocin-resistant strains, these two types of resistance being of clinical relevance.
(§2) Strains were conserved in Luria Bertani (LB) Broth (S. aureus) or Brain Heart Infusion (BHI) (S. pyogenes) supplemented with glycerol 15% (v/v) at −80° C., and reactivated by isolation on LB (S. aureus) or BHI (S. pyogenes) agar plates. Strains were cultivated in Mueller Hinton (MH) Broth-cation adjusted (S. aureus) supplemented with lysed horse blood 2.5% (v/v) (S. pyogenes). All strains were cultivated at 37° C., aerobically for S. aureus strains.
(§3) Bacterial cultures were stopped in their exponential growth phase and plates were inoculated with the approximate concentration of 10^3 cells per well. Plates were incubated at 37° C. for 18 hours (S. aureus) or 24 hours (S. pyogenes). Optical density at a wavelength of 600 nm was measured at the end of the incubation time. […] Experiments were performed at least as triplicate biological replicates with all strains.

P. aeruginosa = details: Imperi et al. 2013, cited from earlier work
S. pyogenes [4] = assay: MIC assay, Example 2, S. pyogenes strains (in BHI); format: cell-based, Streptococcus pyogenes; details: 4 strains
Description: Two-hundred-four other MRSA and methicillin-sensitive S. aureus strains, and 4 Streptococcus pyogenes strains, were also included in the study. These covered fusidic acid- and mupirocin-resistant strains, these two types of resistance being of clinical relevance.
Strains were conserved in Luria Bertani (LB) Broth (S. aureus) or Brain Heart Infusion (BHI) (S. pyogenes) supplemented with glycerol 15% (v/v) at −80° C., and reactivated by isolation on LB (S. aureus) or BHI (S. pyogenes) agar plates. Strains were cultivated in Mueller Hinton (MH) Broth-cation adjusted (S. aureus) or BHI (S. pyogenes). All strains were cultivated aerobically (microaerobically for S. pyogenes strains) at 37° C.
Bacterial cultures were stopped in their exponential growth phase and plates were inoculated with the approximate concentration of 5×10^5 cells per well. Plates were incubated at 37° C. for 18 hours (S. aureus) or 24 hours (S. pyogenes). Optical density at a wavelength of 600 nm was measured at the end of the incubation time.

S. aureus = assay: Minimum inhibitory concentration (MIC) assay, Example 1, S. aureus strains; format: cell-based; details: Staphylococcus aureus
Description: The methicillin-resistant S. aureus (MRSA) 01 strain was used as the primary test microorganism as a representative bacteria commonly found in skin infections. This strain is a community-acquired MRSA clinical isolate of USA 300 type, from a skin abscess.
as §1, §2, §3

[5] = published literature values; cited from earlier work
[6] = P. acnes, agar dilution, anaerobic, 72 hours, read-out: MIC

C=C[C@]1(C)C[C@@H](OC(=O)CS[C@@H]2C[C@H]3CC[C@@H](C2)N3C)[C@]2(C)[C@H](C)CC[C@]3(CCC(=O)[C@H]32)[C@@H](C)[C@@H]1O [Retapamulin, retapamulin]
MIC (P. acnes; 72 h): 0.016 µg/mL (≈ 0.0309 µM)

CC(=O)O[C@H]1C[C@@]2(C)[C@@H](C[C@@H](O)[C@H]3[C@@]4(C)CC[C@@H](O)[C@@H](C)[C@@H]4CC[C@@]32C)/C1=C(\CCC=C(C)C)C(=O)O [Fusidic acid, fusidic acid]
mutational frequency ([1]; at MIC×1): ≥ 4.10^−5 | mutational frequency ([1]; at MIC×10): 3.10^−7 | MIC (P. acnes; [6]): 4 µg/mL (≈ 7.74 µM)

O=C(Nc1ccc([N+](=O)[O-])cc1Cl)c1cc(Cl)ccc1O [Niclosamide, niclosamide]
concentration in the plasma [2]: less than 0.651 ng/mL | mutational frequency ([1]; at MIC×1, all tested strains (MRSA 01, MRSA 15, MRSA 16), below the detection limit): < 4.10^−9 | MIC (P. acnes; [6]): 0.5 µg/mL (≈ 1.53 µM) | MIC (S. pyogenes [3]; ATCC12385, S. pyogenes strain ATCC 12385): 1.6 µg/mL (≈ 4.89 µM) | MIC (S. pyogenes [3]; ATCC19615, S. pyogenes strain ATCC 19615): 3.2 µg/mL (≈ 9.78 µM) | MIC (S. pyogenes [3]; CCUG25571, S. pyogenes strain CCUG 25571): 3.2 µg/mL (≈ 9.78 µM) | MIC (S. pyogenes [3]; S. pyogenes strain 01): 3.2 µg/mL (≈ 9.78 µM) | effect on growth of P. aeruginosa (P. aeruginosa): does not affect the growth of P. aeruginosa | concentration at which some inhibition was detected (quorum sensing) (P. aeruginosa; P. aeruginosa): 1 µM | concentration required for optimal activity (quorum sensing) (P. aeruginosa; P. aeruginosa): 20 µM | MIC distribution: percentage of Streptococcus pyogenes strains (S. pyogenes [4]; MIC 0.0625 μg/ml): 25% | MIC distribution: percentage of Streptococcus pyogenes strains (S. pyogenes [4]; MIC 0.5 μg/ml): 25% (1/4) | MIC distribution: percentage of Streptococcus pyogenes strains (S. pyogenes [4]; MIC […]): 25% (1/4) | MIC (S. aureus; MRSA, * tested against one strain: MRSA 01, read-out: Mic100 S. aureus): ≤ 0.4 µg/mL | MIC (S. aureus; MRSA, strain MRSA 01, read-out: MIC): 0.4 µg/mL (≈ 1.22 µM) | MIC (S. aureus; MRSA, strain MRSA 02, read-out: MIC): 0.2 µg/mL (≈ 0.611 µM) | MIC (S. aureus; MRSA, strain MRSA 03*, read-out: MIC): 0.4 µg/mL (≈ 1.22 µM) | MIC (S. aureus; MRSA, strain MRSA 04, read-out: MIC): 0.4 µg/mL (≈ 1.22 µM) | MIC (S. aureus; MRSA, strain MRSA 05, read-out: MIC): 0.2 µg/mL (≈ 0.611 µM) | MIC (S. aureus; MRSA, strain MRSA 06, read-out: MIC): 0.4 µg/mL (≈ 1.22 µM) | MIC (S. aureus; MRSA, strain MRSA 07, read-out: MIC): 0.2 µg/mL (≈ 0.611 µM) | MIC (S. aureus; MRSA, strain MRSA 08*, read-out: MIC): 0.4 µg/mL (≈ 1.22 µM) | MIC (S. aureus; MRSA, strain MRSA 09, read-out: MIC): 0.2 µg/mL (≈ 0.611 µM) | MIC (S. aureus; MRSA, strain MRSA 10, read-out: MIC): 0.4 µg/mL (≈ 1.22 µM) | MIC (S. aureus; MRSA, strain MRSA 11, read-out: MIC): 0.1 µg/mL (≈ 0.306 µM) | MIC (S. aureus; MRSA, strain MRSA 12*, read-out: MIC): 0.4 µg/mL (≈ 1.22 µM) | MIC (S. aureus; MRSA, strain MRSA 13*, read-out: MIC): 0.4 µg/mL (≈ 1.22 µM) | MIC (S. aureus; MRSA, strain MRSA 14*, read-out: MIC): 0.4 µg/mL (≈ 1.22 µM) | MIC (S. aureus; MRSA, strain MRSA 15*, read-out: MIC): 0.2 µg/mL (≈ 0.611 µM) | MIC (S. aureus; MRSA, strain MRSA 16*, read-out: MIC): 0.2 µg/mL (≈ 0.611 µM) | MIC (S. aureus; MRSA, strain MRSA 17*, read-out: MIC): 0.2 µg/mL (≈ 0.611 µM) | MIC (S. aureus; MSSA, strain MSSA 01*, read-out: MIC): 0.4 µg/mL (≈ 1.22 µM) | MIC (S. aureus; MSSA, strain MSSA 02*, read-out: MIC): 0.4 µg/mL (≈ 1.22 µM) | MIC (S. aureus; NEWMAN, strain Newman, read-out: MIC): 0.2 µg/mL (≈ 0.611 µM) | MIC (S. aureus; strain EEFIC 01*, read-out: MIC): 0.4 µg/mL (≈ 1.22 µM) | MIC (S. aureus; strain EEFIC 02*, read-out: MIC): 0.2 µg/mL (≈ 0.611 µM) | LD50 mice p.o [5]: >1500 mg/kg
